Measurements from ChEMBL document CHEMBL5653631, “A Potent and Selective ULK1 Inhibitor Suppresses Autophagy and Sensitizes Cancer Cells to Nutrient Stress” (iScience, 2018).
Values belong to the molecule of their own block, whether it stands above or below them.

Legend:
[1] = biological target: T1, Discoidin domain-containing receptor 2 (Homo sapiens) (UniProt Q16832); assay: Inhibition of human recombinant DDR2 at 500 nM related to control ULK1
T1 sequence (whole entry): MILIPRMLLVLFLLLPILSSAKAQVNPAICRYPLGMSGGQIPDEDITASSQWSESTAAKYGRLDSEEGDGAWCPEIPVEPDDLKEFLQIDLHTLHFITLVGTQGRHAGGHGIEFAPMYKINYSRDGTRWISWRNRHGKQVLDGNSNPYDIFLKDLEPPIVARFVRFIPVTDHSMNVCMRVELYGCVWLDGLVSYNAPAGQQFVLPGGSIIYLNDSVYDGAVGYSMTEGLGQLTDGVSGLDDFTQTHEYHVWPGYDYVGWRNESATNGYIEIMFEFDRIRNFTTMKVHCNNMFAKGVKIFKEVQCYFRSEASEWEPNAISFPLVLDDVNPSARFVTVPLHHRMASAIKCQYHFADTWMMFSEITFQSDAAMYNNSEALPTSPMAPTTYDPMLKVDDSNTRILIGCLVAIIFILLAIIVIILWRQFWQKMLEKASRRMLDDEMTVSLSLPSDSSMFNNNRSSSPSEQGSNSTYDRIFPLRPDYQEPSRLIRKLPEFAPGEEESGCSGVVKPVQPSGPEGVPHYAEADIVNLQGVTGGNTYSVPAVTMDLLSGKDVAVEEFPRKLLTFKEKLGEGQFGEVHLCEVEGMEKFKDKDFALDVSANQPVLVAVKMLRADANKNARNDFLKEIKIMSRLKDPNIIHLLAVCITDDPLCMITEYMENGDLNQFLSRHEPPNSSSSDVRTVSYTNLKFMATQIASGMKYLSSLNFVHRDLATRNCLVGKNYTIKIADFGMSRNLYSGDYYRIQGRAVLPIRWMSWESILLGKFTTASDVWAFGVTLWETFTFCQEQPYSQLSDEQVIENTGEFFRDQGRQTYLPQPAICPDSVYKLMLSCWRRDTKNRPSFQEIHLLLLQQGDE

[2] = biological target: Serine/threonine-protein kinase N1 (Homo sapiens) (UniProt Q16512); assay: Inhibition of human recombinant PKN1 at 500 nM in presence of ATP by radiometric assay relative to control
[3] = biological target: T2, Mitogen-activated protein kinase kinase kinase kinase 2 (Homo sapiens) (UniProt Q12851); assay: Inhibition of human recombinant GCK at 500 nM in presence of ATP by radiometric assay relative to control
T2 sequence (whole entry): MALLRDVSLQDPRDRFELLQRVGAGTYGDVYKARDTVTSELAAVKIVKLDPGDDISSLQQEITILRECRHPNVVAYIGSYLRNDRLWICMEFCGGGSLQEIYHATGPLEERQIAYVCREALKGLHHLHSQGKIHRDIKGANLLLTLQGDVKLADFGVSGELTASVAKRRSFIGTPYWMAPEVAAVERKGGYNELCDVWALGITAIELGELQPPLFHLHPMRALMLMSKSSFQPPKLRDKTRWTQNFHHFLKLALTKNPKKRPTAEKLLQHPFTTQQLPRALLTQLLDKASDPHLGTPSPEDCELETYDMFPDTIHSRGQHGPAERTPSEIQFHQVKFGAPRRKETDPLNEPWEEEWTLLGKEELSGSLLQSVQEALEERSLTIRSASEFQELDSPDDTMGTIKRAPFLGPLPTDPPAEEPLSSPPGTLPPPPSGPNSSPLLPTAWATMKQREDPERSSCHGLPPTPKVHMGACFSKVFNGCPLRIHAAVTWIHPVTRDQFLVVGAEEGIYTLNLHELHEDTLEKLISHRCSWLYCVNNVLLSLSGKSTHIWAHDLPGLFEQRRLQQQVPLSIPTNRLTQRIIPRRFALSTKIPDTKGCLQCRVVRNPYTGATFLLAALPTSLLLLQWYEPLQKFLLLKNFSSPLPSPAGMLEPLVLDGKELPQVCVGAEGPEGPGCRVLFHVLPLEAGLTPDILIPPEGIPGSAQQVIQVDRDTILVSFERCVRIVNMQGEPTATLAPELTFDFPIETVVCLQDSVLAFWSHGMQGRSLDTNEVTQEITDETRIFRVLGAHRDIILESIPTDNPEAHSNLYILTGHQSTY

[4] = biological target: Serine/threonine-protein kinase 32A (Homo sapiens) (UniProt Q8WU08); assay: Inhibition of human recombinant YANK1 at 500 nM related to control ULK1
[5] = biological target: Mitogen-activated protein kinase 14 (Homo sapiens) (UniProt Q16539); assay: Inhibition of human recombinant p38alpha at 500 nM in presence of ATP by radiometric assay relative to control
[6] = biological target: eIF-2-alpha kinase GCN2 (Homo sapiens) (UniProt Q9P2K8); assay: Inhibition of human recombinant GCN2 at 500 nM related to control ULK1
[7] = biological target: Mitogen-activated protein kinase 9 (Homo sapiens) (UniProt P45984); assay: Inhibition of human recombinant JNK2 at 500 nM related to control ULK1
[8] = biological target: Cell division cycle 7-related protein kinase (Homo sapiens) (UniProt O00311); assay: Inhibition of human recombinant CDC7 at 500 nM in presence of ATP by radiometric assay relative to control
[9] = biological target: Cyclin-dependent kinase 7 (Homo sapiens) (UniProt P50613); assay: Inhibition of human recombinant CDK7 at 40 nM in presence of ATP by radiometric assay relative to control
[10] = biological target: Dual specificity protein kinase CLK4 (Homo sapiens) (UniProt Q9HAZ1); assay: Inhibition of human recombinant CLK4 at 40 nM in presence of ATP by radiometric assay relative to control
[11] = biological target: Tyrosine-protein kinase Tec (Homo sapiens) (UniProt P42680); assay: Inhibition of human recombinant TEC at 15 nM in presence of ATP by radiometric assay relative to control
[12] = biological target: T3, Calcium/calmodulin-dependent protein kinase type IV (Homo sapiens) (UniProt Q16566); assay: Inhibition of human recombinant CaMK4 at 15 nM in presence of ATP by radiometric assay relative to control
T3 sequence (whole entry): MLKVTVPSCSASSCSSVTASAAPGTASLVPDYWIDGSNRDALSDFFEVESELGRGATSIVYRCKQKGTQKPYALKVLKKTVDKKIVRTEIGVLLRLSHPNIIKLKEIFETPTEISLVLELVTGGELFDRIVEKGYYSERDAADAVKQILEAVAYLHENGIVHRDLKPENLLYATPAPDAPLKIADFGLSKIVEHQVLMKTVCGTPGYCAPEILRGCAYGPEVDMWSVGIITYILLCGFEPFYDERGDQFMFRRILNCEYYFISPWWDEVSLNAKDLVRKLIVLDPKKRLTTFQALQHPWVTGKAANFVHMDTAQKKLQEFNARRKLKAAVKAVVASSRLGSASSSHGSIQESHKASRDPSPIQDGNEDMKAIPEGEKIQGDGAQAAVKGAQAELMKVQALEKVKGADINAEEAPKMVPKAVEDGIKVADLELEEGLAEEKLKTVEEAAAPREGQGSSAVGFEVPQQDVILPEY

Sequence of Serine/threonine-protein kinase 32A (Homo sapiens) (Q8WU08 whole entry): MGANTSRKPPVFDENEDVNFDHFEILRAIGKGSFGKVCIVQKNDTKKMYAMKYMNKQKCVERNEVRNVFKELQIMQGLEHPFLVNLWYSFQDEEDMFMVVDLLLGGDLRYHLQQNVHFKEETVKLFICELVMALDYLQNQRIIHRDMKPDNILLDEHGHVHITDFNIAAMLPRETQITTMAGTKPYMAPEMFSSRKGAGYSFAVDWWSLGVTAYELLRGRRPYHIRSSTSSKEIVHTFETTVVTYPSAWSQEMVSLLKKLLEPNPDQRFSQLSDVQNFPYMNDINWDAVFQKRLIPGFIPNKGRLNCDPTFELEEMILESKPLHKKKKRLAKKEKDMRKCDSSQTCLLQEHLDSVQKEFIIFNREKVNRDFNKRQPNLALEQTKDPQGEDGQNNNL
Sequence of Cell division cycle 7-related protein kinase (Homo sapiens) (O00311 whole entry, looked up): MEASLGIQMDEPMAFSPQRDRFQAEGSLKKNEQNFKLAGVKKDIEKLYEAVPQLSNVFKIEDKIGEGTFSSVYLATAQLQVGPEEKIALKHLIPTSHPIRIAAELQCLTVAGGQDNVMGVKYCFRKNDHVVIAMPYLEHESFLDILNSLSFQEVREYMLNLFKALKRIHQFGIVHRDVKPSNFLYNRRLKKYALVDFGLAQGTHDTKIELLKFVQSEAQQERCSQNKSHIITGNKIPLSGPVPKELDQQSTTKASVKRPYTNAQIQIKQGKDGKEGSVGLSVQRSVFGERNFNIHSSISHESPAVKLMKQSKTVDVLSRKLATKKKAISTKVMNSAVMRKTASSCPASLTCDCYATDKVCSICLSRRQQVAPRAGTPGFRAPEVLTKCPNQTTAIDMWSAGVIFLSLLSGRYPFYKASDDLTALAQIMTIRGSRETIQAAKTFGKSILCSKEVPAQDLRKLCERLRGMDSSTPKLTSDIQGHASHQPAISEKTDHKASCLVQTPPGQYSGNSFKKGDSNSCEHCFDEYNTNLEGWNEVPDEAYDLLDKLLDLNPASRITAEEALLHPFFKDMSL
Sequence of Cyclin-dependent kinase 7 (Homo sapiens) (P50613 whole entry): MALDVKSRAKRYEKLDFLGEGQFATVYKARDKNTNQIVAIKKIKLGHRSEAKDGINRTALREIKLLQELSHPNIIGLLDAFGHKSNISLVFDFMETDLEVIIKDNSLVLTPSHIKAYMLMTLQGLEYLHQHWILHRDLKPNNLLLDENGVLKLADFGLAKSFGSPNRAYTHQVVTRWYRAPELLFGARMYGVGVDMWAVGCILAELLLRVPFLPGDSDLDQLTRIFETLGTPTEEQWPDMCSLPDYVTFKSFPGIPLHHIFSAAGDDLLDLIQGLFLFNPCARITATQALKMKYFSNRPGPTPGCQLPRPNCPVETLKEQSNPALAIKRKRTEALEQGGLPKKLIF
Sequence of Mitogen-activated protein kinase 9 (Homo sapiens) (P45984 whole entry, looked up): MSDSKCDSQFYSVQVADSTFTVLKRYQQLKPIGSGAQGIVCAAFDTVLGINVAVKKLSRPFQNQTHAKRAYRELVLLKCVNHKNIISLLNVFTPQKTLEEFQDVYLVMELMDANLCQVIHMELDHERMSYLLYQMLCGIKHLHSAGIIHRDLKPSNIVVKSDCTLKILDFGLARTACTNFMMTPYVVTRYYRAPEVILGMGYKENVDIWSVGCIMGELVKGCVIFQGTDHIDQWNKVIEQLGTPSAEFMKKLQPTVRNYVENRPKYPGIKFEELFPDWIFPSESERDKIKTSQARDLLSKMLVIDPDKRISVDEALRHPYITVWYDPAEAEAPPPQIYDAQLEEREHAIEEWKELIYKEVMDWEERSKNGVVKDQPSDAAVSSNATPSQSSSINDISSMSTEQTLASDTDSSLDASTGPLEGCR
Sequence of Tyrosine-protein kinase Tec (Homo sapiens) (P42680 whole entry, looked up): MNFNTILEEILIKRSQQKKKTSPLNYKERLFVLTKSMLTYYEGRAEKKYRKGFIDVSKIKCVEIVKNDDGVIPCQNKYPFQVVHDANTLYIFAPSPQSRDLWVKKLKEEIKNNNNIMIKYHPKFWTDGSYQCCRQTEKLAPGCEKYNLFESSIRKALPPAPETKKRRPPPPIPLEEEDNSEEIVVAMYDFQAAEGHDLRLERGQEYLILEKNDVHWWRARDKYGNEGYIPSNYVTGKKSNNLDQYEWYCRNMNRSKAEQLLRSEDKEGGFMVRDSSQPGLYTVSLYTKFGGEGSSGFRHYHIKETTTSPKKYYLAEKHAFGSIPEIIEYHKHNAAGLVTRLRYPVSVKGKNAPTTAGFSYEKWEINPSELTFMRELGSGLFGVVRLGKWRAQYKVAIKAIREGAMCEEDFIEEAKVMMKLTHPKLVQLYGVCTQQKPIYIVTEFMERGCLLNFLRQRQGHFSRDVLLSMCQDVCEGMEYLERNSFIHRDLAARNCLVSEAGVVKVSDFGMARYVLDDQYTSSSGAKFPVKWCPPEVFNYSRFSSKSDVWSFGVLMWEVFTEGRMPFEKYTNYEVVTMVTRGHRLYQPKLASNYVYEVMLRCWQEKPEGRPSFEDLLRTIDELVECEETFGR
Sequence of Serine/threonine-protein kinase N1 (Homo sapiens) (Q16512 2-942 limits assumed): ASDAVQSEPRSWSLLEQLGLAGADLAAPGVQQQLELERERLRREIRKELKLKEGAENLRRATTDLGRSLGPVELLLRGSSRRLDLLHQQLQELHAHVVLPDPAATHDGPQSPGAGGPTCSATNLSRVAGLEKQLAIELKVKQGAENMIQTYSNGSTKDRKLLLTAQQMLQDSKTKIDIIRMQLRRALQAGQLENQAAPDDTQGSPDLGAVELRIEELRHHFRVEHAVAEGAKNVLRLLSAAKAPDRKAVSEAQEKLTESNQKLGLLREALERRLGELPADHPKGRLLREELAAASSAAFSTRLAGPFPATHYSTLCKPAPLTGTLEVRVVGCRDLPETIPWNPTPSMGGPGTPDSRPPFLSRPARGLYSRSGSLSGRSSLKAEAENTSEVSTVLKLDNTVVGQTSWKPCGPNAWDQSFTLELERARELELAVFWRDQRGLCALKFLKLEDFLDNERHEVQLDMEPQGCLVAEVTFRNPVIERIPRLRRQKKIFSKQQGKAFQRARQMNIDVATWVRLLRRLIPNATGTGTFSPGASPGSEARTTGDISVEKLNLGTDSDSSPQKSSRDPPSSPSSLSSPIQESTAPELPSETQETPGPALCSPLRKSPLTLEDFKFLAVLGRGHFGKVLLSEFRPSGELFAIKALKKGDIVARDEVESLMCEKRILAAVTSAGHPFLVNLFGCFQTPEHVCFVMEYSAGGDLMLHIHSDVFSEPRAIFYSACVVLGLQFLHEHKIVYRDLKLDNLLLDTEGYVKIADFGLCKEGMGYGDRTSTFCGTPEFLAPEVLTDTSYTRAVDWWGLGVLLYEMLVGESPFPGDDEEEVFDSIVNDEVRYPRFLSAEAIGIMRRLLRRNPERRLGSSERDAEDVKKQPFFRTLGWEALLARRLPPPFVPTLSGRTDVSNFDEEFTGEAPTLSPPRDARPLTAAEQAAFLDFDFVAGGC
Sequence of Mitogen-activated protein kinase 14 (Homo sapiens) (Q16539 whole entry): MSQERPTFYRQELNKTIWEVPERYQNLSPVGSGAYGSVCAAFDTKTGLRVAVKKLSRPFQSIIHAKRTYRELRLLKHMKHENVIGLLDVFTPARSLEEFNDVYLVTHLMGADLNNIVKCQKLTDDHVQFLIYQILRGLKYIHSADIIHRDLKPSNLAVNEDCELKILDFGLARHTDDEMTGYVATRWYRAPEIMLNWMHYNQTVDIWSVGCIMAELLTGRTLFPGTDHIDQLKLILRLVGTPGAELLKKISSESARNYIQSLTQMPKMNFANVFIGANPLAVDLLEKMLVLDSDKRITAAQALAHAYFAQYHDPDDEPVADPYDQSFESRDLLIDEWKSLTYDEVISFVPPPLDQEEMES
Sequence of Dual specificity protein kinase CLK4 (Homo sapiens) (Q9HAZ1 whole entry, looked up): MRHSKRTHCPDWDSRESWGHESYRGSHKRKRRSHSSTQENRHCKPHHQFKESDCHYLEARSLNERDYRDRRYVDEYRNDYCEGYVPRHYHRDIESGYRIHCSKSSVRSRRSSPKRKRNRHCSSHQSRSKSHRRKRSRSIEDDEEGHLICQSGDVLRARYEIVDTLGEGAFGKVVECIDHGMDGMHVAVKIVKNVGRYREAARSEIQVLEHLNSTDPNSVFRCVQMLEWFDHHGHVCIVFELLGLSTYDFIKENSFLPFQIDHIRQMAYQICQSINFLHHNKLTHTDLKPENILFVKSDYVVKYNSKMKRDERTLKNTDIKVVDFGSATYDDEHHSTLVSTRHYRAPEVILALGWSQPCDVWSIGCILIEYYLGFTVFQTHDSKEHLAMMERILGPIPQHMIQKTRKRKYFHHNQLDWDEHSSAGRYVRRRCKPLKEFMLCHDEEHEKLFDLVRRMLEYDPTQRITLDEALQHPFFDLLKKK

fold change (FC) [1]: 0
inhibition [2]: 0%
inhibition [3]: 33%
fold change (FC) [4]: 0
inhibition [5]: 5%
fold change (FC) [6]: 0.03
fold change (FC) [7]: 0
inhibition [8]: 0%
SMILES: CNC(=O)c1ccccc1Oc1nc(Nc2cc(OC)c(OC)c(OC)c2)ncc1Br

inhibition [9]: 23%
inhibition [10]: 52%
SMILES: O=C(N[C@@H](C1CC1)C(F)(F)F)c1cc(-c2cnn3cc(-c4ccc(F)cc4)cnc23)cs1

inhibition [11]: 0%
inhibition [12]: 0%
SMILES: CC(C)[C@H](NC(=O)c1cc(-c2cnn3cc(-c4ccc(OCCN5CCCCC5)cc4)cnc23)cs1)C(F)(F)F
